{"source": "patent EP1433779A1", "about": "“Use of nitriles as inhibitors of non-proteolytic enzymes” (Jerini AG, priority 2002, dated 2004)", "experiment_in_all_cases": "biochemical", "key": {"[1]": {"biological_target": "Leishmonia pneumophila virulence Cyclosporin A receptor with 18 kDa molecular weight, LpCyp18 (Legionella pneumophila subsp. pneumophila, UniProt Q5ZRZ4)", "sequence (Q5ZRZ4 1-164 limits assumed)": "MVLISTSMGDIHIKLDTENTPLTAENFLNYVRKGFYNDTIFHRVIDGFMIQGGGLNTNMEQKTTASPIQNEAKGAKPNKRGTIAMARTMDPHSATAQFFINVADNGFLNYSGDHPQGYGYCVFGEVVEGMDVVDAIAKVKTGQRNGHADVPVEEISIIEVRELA"}, "[2]": {"biological_target": "Human Cyclosporin A receptor with 18 kDa molecular weight, hCyp18 (Homo sapiens, UniProt P62937)", "sequence (P62937 whole entry)": "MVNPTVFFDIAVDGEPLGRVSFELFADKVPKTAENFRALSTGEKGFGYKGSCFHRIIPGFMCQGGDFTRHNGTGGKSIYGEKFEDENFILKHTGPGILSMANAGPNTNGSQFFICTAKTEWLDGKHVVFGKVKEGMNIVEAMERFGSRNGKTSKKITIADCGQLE"}, "[3]": {"biological_target": "T1, Bacterial Juglon sensitive non proteolytic enzyme, EcParv (Escherichia coli, UniProt P0A9L5)", "T1 sequence (P0A9L5 1-93)": "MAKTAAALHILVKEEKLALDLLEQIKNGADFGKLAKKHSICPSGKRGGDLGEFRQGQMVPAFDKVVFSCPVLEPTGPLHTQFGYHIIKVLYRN"}, "[4]": {"biological_target": "First described human Rapamycin receptor, hFKBP12 (Homo sapiens, UniProt P62942)", "sequence (P62942 whole entry)": "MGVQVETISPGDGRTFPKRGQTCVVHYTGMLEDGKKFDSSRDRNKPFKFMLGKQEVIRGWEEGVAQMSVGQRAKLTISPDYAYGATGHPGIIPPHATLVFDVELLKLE"}}, "data": [{"smiles": "N#CCCNC(=S)Nc1ccc([N+](=O)[O-])cc1", "note": "[Compound 4]", "values": [{"measurement": "IC50", "setting": "[1]", "value": "> 100", "unit": "µM"}, {"measurement": "IC50", "setting": "[2]", "value": "> 100", "unit": "µM"}, {"measurement": "IC50", "setting": "[3]", "value": "10 to 50", "unit": "µM"}, {"measurement": "IC50", "setting": "[4]", "value": "> 100", "unit": "µM"}]}]}
